Measured values as given in patent publication US7550587B2, “Photosensitizer and method for production thereof” (priority 2001, dated 2009).

Settings: mouse, in vivo
Procedure: The mice were slaughtered 3 hours after injection (each group consisted of 3 mice). The materials of liver, kidney, spleen, lungs, small intestines, tumor, surrounding muscle tissue as well as from blood, urine, faeces from large intestine weighing 100 mg each were thoroughly homogenised in glass homogenizers supplementing 4 ml of saline solution. For examination of biological fluids (blood, urine) 0,1 ml of each fluid were taken with subsequent dissolution in 4 ml of saline solution. The resulting homogenates were studied on “Perkin-Elmer” spectrofluorimeter (MPF-44A model).

## 13-carboxy-17-[2-carboxyethyl]-15-formyl-17,18-trans-dihydro-3-vinyl-8-ethyl-2,7,12,18-tetramethylporphyrin [purpurin 5]
  time interval of tumour accumulation optimal for photodynamic effect according to selectivity: 3 to 18 h
